The subject of data set [1] is wild-type HT29 cells. Kind of data set: Necroptosis assay (PI exclusion, flow cytometry), wild-type HT29 cells, TNF+SM+IDN. In kind it is cell-based, human. The settings on record: sheet S5H. How it is done: To simulate necroptosis, cells were seeded into 96-well plates ±40 ng/mL doxycycline, to induce construct expression, and treated with 100 ng/mL FLAG-TNF (recombinant human, in-house), 500 nM compound A Smac mimetic (kindly gifted by TetraLogics Pharmaceuticals) and 5 μM IDN-6556 (Cayman) or 10 uM Z-VAD-fmk (Selleckchem) overnight (16–24 h). Degrader compounds or a DMSO vehicle control were added for 5 h, as stated in the Fig. legends. Cells were detached using Trypsin-EDTA (Merck) and resuspended in cell supernatants containing 10 μg/mL propidium iodide (PI). PI exclusion analysis was performed using an LSR II flow cytometer (Becton Dickinson, NJ) with 10,000 single-cell events per sample. Flow cytometry data were analysed using WEASEL version 2.7 software (Frank Battye).
Supplementary Figure 5. […]
NC4. Data are representative of N = 3 independent experiments. f-h. HT29 cells were stimulated with DMSO (control) or 500 nM of degrader for 5 hours before the addition of TNF (100 ng/mL) + Smac mimetic (compound A; 500 nM-1 µM) + caspase inhibitor; Emricasan (IDN) (5 µM), for 24 hours. Cell death was assessed by flow cytometric analysis of PI exclusion. N = 3 replicates (symbols) is shown, EB; mean ± SD. Data are representative of N = 3 independent experiments. i. Representative flow cytometry gating strategy. Source data are provided as a Source Data file.
A general note: In flow cytometry, cells or beads pass a laser one at a time.

Data set [2] has as its system MLKL^−/− HT29 cells expressing untagged MLKL. Format: cell-based. The settings on record: MLKL-/- + MLKL, independent experiments.
Method: (§1) Cell death was assessed by flow cytometric analysis of PI exclusion. […] Cell death was assessed by flow cytometric analysis of PI exclusion. […] Cell death was assessed by flow cytometric analysis of PI exclusion. e N = 4, f N = 3 independent experiments (symbols), EB represent mean ± SD. g Western from MLKL^−/−CASP8^−/− HT29 cells stably expressing the doxycycline-inducible C-terminal fusion protein, MLKL-NanoLuc (MLKL-NLuc) and constitutively expressing the C-terminal fusion protein caspase-8-FKBP^F36V. […] Cell death was assessed using an IncuCyte and Cytotox-Red uptake. N = 3 independent experiments, one representative experiment shown, EB represent mean ± SD.
Data set [3] deals with MLKL^−/− HT29 cells expressing MLKL-FKBP^F36V. In kind it is cell-based. The settings on record: for Live cells (%PI negative) after TNF+911+zVAD: MLKL-/- + MLKL FKBPF36V, independent experiments.
Method: as §1
Data set [4] has as its target T1, murine MLKL-FKBP^F36V (Homo sapiens, UniProt P62942, F37V).
T1 construct: expressed in transfected cells; host or cells: Mlkl-/- mouse dermal fibroblasts, doxycycline-inducible
Format: cell-based. The settings on record: 31.2-500 nM, 5 h.
Method: All timepoint experiments were performed as reverse timepoints in order to harvest all cells at the same time. At the indicated time points cells were lysed in NuPAGE LDS lysis buffer (Invitrogen) diluted to 1× in DISC lysis buffer (20 mM Tris-HCl pH7.5, 150 mM NaCl, 2 mM EDTA pH 8.0, 1% Triton X-100, 10% glycerol, H20)) supplemented with β-Mercaptoethanol (2%), protease and phosphatase inhibitors. Lysates were run through polypropylene columns (Pierce) to shred DNA. […] Membranes were blocked in 5% skim milk (Devondale) in TBS-T (TBS, 0.1% Tween-20) for 1 h prior to immunoblotting with primary antibodies overnight at 4 °C. Unless stated otherwise, all primary antibodies were diluted in TBS-T (TBS, 0.1% Tween-20) containing 5% BSA (Sigma A8022) and 0.04% sodium azide: HaloTag (1:1000, Promega; G9211), NanoLuc (1:500, Promega; N7000), β-actin (1:20,000, Sigma; A-1798), MLKL (1:1000, produced in-house; 3H1 clone)[39], FKBP (1:1000, R&D systems; 422513), caspase-8 (1:1000, Proteintech; 13423-1-AP), Histone H3 (1:1000, Abcam; ab10799), Cadherin (1:1000, Cell Signalling Technologies; 4068 T). Membranes were washed 3 × 5–10 min in TBS-T (TBS, 0.1% Tween-20) prior to the addition of the appropriate secondary antibodies conjugated with horseradish peroxidase (Jaxon laboratories). […]

For data set [5], the target named is T2, Halo-EGFP-NanoLuc-FKBP^F36V (H-E-N-F) fusion protein (UniProt P0A3G2+P62942+Q9GV45, A155T/A167V/A172T/A224E/A31E/A60N/A81I/C128F/C176G/D78G/E160K/E257K/F37V/F95D/H272N/I117V/K175M/K195N/K70R/L47V/L54V/L88M/L99Q/M102K/N193R/N227D/P142E/P291S/Q151K/Q38R/Q45L/S2A/S58T/T264A/V71I/Y165I/Y273L/Y87F). Format: cell-based. The settings on record: 500 nM. Also noted: expressed in transfected cells; host or cells: immortalized mouse dermal fibroblasts (iMDFs), ubiquitin promoter, constitutive.
Target sequence in this assay (P0A3G2 other isoform, or with tags, fused parts or gaps with the stated changes): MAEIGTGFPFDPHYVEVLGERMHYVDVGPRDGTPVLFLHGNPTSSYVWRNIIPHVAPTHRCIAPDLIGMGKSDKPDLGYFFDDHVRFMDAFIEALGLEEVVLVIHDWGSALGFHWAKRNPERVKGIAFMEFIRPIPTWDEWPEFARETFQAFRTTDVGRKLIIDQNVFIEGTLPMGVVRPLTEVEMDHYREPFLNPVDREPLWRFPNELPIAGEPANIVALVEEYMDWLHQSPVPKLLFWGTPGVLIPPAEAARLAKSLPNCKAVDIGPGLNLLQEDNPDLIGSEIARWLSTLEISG
Target sequence in this assay (Q9GV45 other isoform, or with tags, fused parts or gaps with the stated changes): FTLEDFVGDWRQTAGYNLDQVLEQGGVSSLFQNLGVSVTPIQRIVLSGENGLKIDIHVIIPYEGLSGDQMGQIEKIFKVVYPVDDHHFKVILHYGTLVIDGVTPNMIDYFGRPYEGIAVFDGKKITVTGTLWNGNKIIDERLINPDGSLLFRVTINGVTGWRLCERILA
Target sequence in this assay (P62942 whole entry F37V, the tested form may be a part): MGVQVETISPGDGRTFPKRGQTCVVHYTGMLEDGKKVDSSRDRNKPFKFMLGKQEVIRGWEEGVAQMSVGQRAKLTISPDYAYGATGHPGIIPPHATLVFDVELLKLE

Data set [6] has as its target T3, Fibrillarin-FKBP^F36V (Homo sapiens, UniProt P62942, F37V).
T3 construct: endogenous in cells; host or cells: 293T, CRISPR/PITCh knock-in at the FBL locus
Format: cell-based. The settings on record: 500 nM, 10 h.

Data set [7] addresses T2, Halo-EGFP-NanoLuc-FKBP^F36V (H-E-N-F) fusion protein. In kind it is cell-based. The settings on record: for Blank corrected (470-80) luminescence / Blank corrected Raw Data (470-80): +dox; for Blank corrected (470-80) luminescence: single well replicates; for Blank corrected (470-80): sheet S3B; for Blank corrected (470-80) / Blank corrected Raw Data (470-80): replicate wells; for Blank corrected Raw Data (470-80): PROTAC 500nM.
Target sequence in this assay (Q9GV45 other isoform, or with tags, fused parts or gaps with the stated changes): as the sequence (Q9GV45 other isoform, or with tags, fused parts or gaps with the stated changes) above
Target sequence in this assay (P0A3G2 other isoform, or with tags, fused parts or gaps with the stated changes): as the sequence (P0A3G2 other isoform, or with tags, fused parts or gaps with the stated changes) above
Target sequence in this assay (P62942 whole entry F37V, the tested form may be a part): as the sequence (P62942 whole entry F37V, the tested form may be a part) above

For data set [8] the following is noted: cited from earlier work.

“And” between values parts separate entries of the source, which are not always exact repeats. Equal entries are not always repeated. Where two headings read alike, the source gives them in different places.

T1 sequence (P62942 whole entry F37V): as the sequence (P62942 whole entry F37V, the tested form may be a part) above
T3 sequence (P62942 whole entry F37V): as the sequence (P62942 whole entry F37V, the tested form may be a part) above

Take `CC[C@H](C(=O)N1CCCC[C@H]1C(=O)O[C@H](CCc1ccc(OC)c(OC)c1)c1ccccc1OCC(=O)NCCCCCCOc1cccc2c1C(=O)N(C1CCC(=O)NC1=O)C2=O)c1cc(OC)c(OC)c(OC)c1` (stereo partly shown) [FC1]: the “viable cells (PI exclusion)” value is 8.5 and 5.7 and 7.1 in data set [1] (TNF+SM+IDN); 77.5 and 79.3 and 78.7 in data set [1] (Untreated (no death stimulus)). Moreover, the “Live cells (%PI negative) after TNF+911+zVAD” value is 6.9 and 6.6 and 8.9 and 5.1 in data set [2] (3.9nM); 6.1 and 5.8 and 8.5 and 4.8 in data set [2] (7.8nM); 5.7 and 5.5 and 8.3 and 4.7 in data set [2] (31.25nM); 6.6 and 6 and 9 and 4.5 in data set [2] (62.5nM); 75.8 and 59.7 and 66 and 51.4 in data set [3] (31.25nM); 81.5 and 75.5 and 67.7 and 62.5 in data set [3] (62.5nM). For the same compound, the “Live cells (%PI negative) after TNF+911+zVAD” value is 83.3 and 81.2 and 68.1 and 65 in data set [3] (250nM); 83.3 and 81.7 and 67.1 and 65 in data set [3] (500nM); 81 and 84.9 and 67.9 and 54.3 in data set [3] (1000nM). For the same compound, in data set [3], the “concentration sustaining cell survival over 24 h” value is given as 62.5 nM. The “degradation of murine MLKL-FKBP^F36V” value in data set [4] is on record as “comparable degradation”. Further, the “time up to which degradation was seen, degrader left in the medium” value in data set [5] (5, 24 or 48 h) is reported as “up to 48 h”. The “time up to which degradation was maintained, degrader removed at 5 h” value in data set [5] (24 or 48 h after removal) was “up to 48 h”. The “Dmax (densitometry)” value in data set [6] is on record as ~ 70%. For the same compound, the “Blank corrected (470-80) luminescence” value was 74602 and 77149 and 76062 and 81411 in data set [7] (3.9nM PROTAC); 59479 and 62985 and 66400 in data set [7] (7.8nM PROTAC); 36339 and 35562 and 38426 in data set [7] (31.25nM PROTAC); 25282 and 26898 and 23798 and 25010 in data set [7] (62.5nM PROTAC); 11621 and 12159 and 11550 in data set [7] (250nM PROTAC); 14990 and 16286 and 14132 in data set [7] (500nM PROTAC, 5h). The “Blank corrected (470-80) luminescence” value was 14691 and 12990 and 15151 in data set [7] (500nM PROTAC, 8h); 19581 and 16848 and 19949 and 18475 in data set [7] (500nM PROTAC, 24h); 10379 and 10950 and 11612 in data set [7] (500nM PROTAC); 13507 and 14074 and 13991 and 15263 in data set [7] (1uM PROTAC). In addition, the “Blank corrected (470-80)” value is 88170.7 and 89328.7 and 91847.7 and 71716.7 in data set [7] (62.5nM); 43826.7 and 54015.7 and 43806.7 and 52617.7 in data set [7] (250nM); 41968.7 and 40671.7 and 43532.7 and 41295.7 in data set [7] (500nM); 51312.7 and 60071.7 and 47699.7 and 53692.7 in data set [7] (1uM). The “Blank corrected Raw Data (470-80)” value was 8854 and 8375 and 8376 and 8057 in data set [7] (DMSO (control) co-treatment); 80455 and 95513 and 84222 and 82486 in data set [7] (co-treatment with MG132 (10uM)).

As to `CO[C@H]1C[C@@H]2CC[C@@H](C)[C@@](O)(O2)C(=O)C(=O)N2CCCC[C@H]2C(=O)O[C@H]([C@H](C)C[C@@H]2CC[C@@H](OCCOCc3cn(CCOCCOCCNc4cccc5c4C(=O)N(C4CCC(=O)NC4=O)C5=O)nn3)[C@H](OC)C2)CC(=O)[C@H](C)/C=C(/C)[C@@H](O)[C@@H](OC)C(=O)[C@H](C)C[C@H](C)\C=C/C=C\C=C/1C` (stereo partly shown) [RC32], in data set [8], the “depletion of substrates in animals” value is “efficient depletion of substrates” and the tolerability in animals entry was “well tolerated”.

The values are drawn from PMC9019100, “Development of NanoLuc-targeting protein degraders and a universal reporter system to benchmark tag-targeted degradation platforms” (Nature Communications, 2022).
